Data published in US20090211893A1, “Photo-Activatable Amino Acids” (priority 2005, published 2009).

Experiments:
COS7 cells [1] = assay: Incorporation of [1-14C]photo-Met and [3H]Phe into newly synthesized protein; assay type: cell-based, monkey
Experimental: Cells were washed 6 times with PBS and lysed in 0.5% Triton X-100, 0.2% sodium deoxycholate. Aggregated DNA was removed, protein was precipitated^43, the pellet was redissolved in 0.3 ml 0.5% SDS and subjected to a second round of precipitation. […] The dried pellet was redissolved and processed for scintillation counting (data of Table 1 and FIG. 4b) or processed as follows for amino acid analysis (FIG. 2b): the pellet was dissolved in 600 µl 50 mM NH4HCO3, 0.5% SDS, 3 mM CaCl2 containing 0.25 mg pronase (Roche) followed by incubation at 37° C. for 20 h. The sample was lyophilized, dissolved in 600 μl of 7 N HCl containing 4 mg of glutamic acid and 6 mg of photo-Met and heated to 70° C. for 24 h. A Dowex 50WX8 column (1.6×24 cm) was prepared^18 and equilibrated with 0.1 M sodium citrate pH 3.8. The sample was concentrated to 50 μl in a speed-vak, diluted to 1 ml with 0.1 M sodium citrate pH 3.8, and loaded onto the column. The column was eluted at 24° C. at a flow rate of 20 ml/h with 70 ml 0.1 M sodium citrate pH 3.8, 26 ml 0.1 M sodium citrate pH 4.3 and 100 ml of 0.1 M sodium citrate pH 4.5. Fractions of 3 ml were collected and assayed for absorbance at 350 nm, radioactivity by scintillation counting, and amino groups by the fluorescamine method^44.
To decrease competition for activation by tRNA synthetases, media devoid of the structurally related amino acids Leu and Met (LM-2) or, for some experiments, devoid of Leu, Met, Ile and Val (LM-4) were used. Proteins incorporated radioactivity as shown by autoradiography after separation by SDS-PAGE (FIG. 2a, lane 3). […] 88% of the radioactivity in the labeled proteins was intact [1-^14C]photo-Met (FIG. 2b, photo-Met). A small peak eluting slightly earlier than glutamic acid (FIG. 2 B, Glu) contained 7% of the radioactivity. This peak was also observed if free [1-^14C]photo-Met was heated with HCl under the conditions of the hydrolysis (data not shown) and therefore represents a product of thermal decomposition of the amino acid. Under the conditions employed, radioactivity originating from degradation/re-integration would be expected to appear as aspartate and glutamate (oxidative release of [^14C]CO2, metabolism via pyruvate carboxylase, citric acid cycle and transamination to Gln and Asn that will be hydrolyzed to Glu and Asp by hot HCl). However, no radioactivity was incorporated via this pathway. We conclude that at least 95% of incorporated radioactivity represents intact [1-^14C]photo-Met. To obtain quantitative data on the frequency of incorporation of photo-Met into newly synthesized protein, we performed co-labeling with [1-^14C]photo-Met and [^3H]Phe. […] Two in three hundred amino acids in newly synthesized protein will be photo-Met.

COS7 cells [2] = assay: Competition of [1-14C]photo-Met incorporation by natural amino acids; assay type: cell-based, monkey; conditions: 1.7 mM [1-14C]photo-Met, 3 mM competing amino acid
Experimental: FIG. 4: Specificity of incorporation and cross-linking by photo-Met and photo-Leu. COS7 cells were transfected with HA-tagged human PGRMC1 and were grown in LM-4 in the absence or presence of photo-Leu (A) or photo-Met (B) with addition of 3 mM of the indicated competing amino acid. cross-linked products formed after UV-irradiation were detected by SDS-PAGE followed by western blotting against the HA-epitope. (C) COS7 cells were grown in the presence of 1.7 mM [1-^14C]photo-Met, a constant trace amount of [^3H]Phe and 3 mM of competing unlabeled amino acids as indicated in the legend. Protein was precipitated and protein-bound radioactivity was determined by scintillation counting. […] The control value obtained in the absence of competing amino acid (con) is set to 100. Data are average±SD of triplicate determinations.
COS7 cells were grown for 20 h in LM-2 containing radiolabeled amino acids ([1-^14C]photo-Met and [^3H]Phe). Cells were washed 6 times with PBS and lysed in 0.5% Triton X-100, 0.2% sodium deoxycholate. Aggregated DNA was removed, protein was precipitated^43, the pellet was redissolved in 0.3 ml 0.5% SDS and subjected to a second round of precipitation. […] Fractions of 3 ml were collected and assayed for absorbance at 350 nm, radioactivity by scintillation counting, and amino groups by the fluorescamine method^44. […]

CC1(CCC(N)[14C](=O)O)N=N1 (racemic) [[1-^14C]photo-Met, DL-[1-^14C]-2-amino-5,5′-azi-hexanoic acid]
Relative frequency (of total amino acids in newly synthesized protein) (COS7 cells [1]; COS7 cells grown 22 h in LM-2): 0.7%
Incorporated amino acid (COS7 cells [1]; COS7 cells grown 22 h in LM-2, average ± SD of triplicate): 0.50 ± 0.05 nmol/dish
Protein-bound activity (COS7 cells [1]; COS7 cells grown 22 h in LM-2 with [3H]Phe and [1-14C]photo-Met, average ± SD of triplicate): 2.34 ± 0.23 nCi/dish
frequency of incorporation relative to that of phenylalanine (COS7 cells [1]; co-labeling with [1-14C]photo-Met and [3H]Phe): 14%
competition of incorporation by Met and Leu (COS7 cells [2]): strongly competed
effect of Val and Ile on incorporation (COS7 cells [2]): slightly stimulated incorporation
